Common to all, as to assay type: biochemical
For one experiment, the target named is CDK6/CycD3 (Homo sapiens (Human), UniProt Q00534). In words: CDK6 kinase assay (Mobility Shift Assay). The settings on record: 28° C. Here is the method:
(§1) • Method 1: In vitro enzymatic activity of the CDK isoforms CDK2/CycA2, CDK4/CycD3 and CDK6/cycD3 were measured using Mobility Shift Assay that monitors phosphorylation ratio of FAM labelled peptide (Peptide 18 for CDK2/CycA2, Peptide 8 for CDK4/CycD3). CDK2/CycA2 and CDK6/CycD3 were assayed under buffer conditions in the presence of 50 mM HEPES (pH 7.5), 10 mM MgCl2, 0.0015% Brij-35 and 2 mM dithiothreitol; CDK4/CycD3 with buffer condition of 20 mM HEPES (pH 7.5), 10 mM MgCl2, 0.01% Triton X-100 and 2 mM dithiothreitol. Prepare compounds to 50× of the final desired highest inhibitor concentration by 100% DMSO and serial dilution in 3-fold for total of 10 concentrations. For each isoform, dosage of enzyme and substrate are CDK2/CycA2 12 nM, ATP Km 39 μM; CDK4/CycD3 10 nM, ATP Km 221 μM; CDK6/cycD3 15 nM, ATP Km 800 μM. After assay for 60 min, 180 min, 60 min respectively at 28° C., reactions were terminated with stop solution (50 mM EDTA, 0.015% Brij-35, 0.2% Coating Reagent #3 and 100 mM HEPES (pH 7.5)). Collect conversion on Caliper EZ Reader. IC50 values were calculated by fitting the dose-response curves with Xlfit excel add-in version 4.3.1. • Method 2: In vitro enzymatic activity of the CDK isoforms CDK2/CycA2, CDK4/CycD3 and CDK6/CycD3 were measured using Mobility Shift Assay that monitors phosphorylation ratio of FAM labelled peptide (Peptide 18 for CDK2/CycA2, Peptide 8 for CDK4/CycD3 and CDK6/CycD3). CDK2/CycA2, CDK4/CycD3 and CDK6/cycD3 were assayed under buffer conditions in the presence of 50 mM HEPES (pH 7.5), 10 mM MgCl2, 0.0015% Brij-35 and 2 mM dithiothreitol. Prepare compounds to 100× of the final desired highest inhibitor concentration by 100% DMSO and serial dilution in 3-fold for total of 10 concentrations, each concentration contains 1% DMSO. […] After assay for 30 min, 150 min, 150 min respectively at 28° C., reactions were terminated with stop solution (50 mM EDTA, 0.015% Brij-35, 0.2% Coating Reagent #3 and 100 mM HEPES (pH 7.5)). Collect conversion on Caliper EZ Reader. IC50 values were calculated by fitting the dose-response curves with GraphPad Prism V5.0.

In the next experiment the target is CDK4/CycD3 (Homo sapiens (Human), UniProt P11802). Description: CDK4 kinase assay (Mobility Shift Assay). The settings on record: 28° C. Here is the method:
as §1

The next experiment concerns the target CDK2/CycA2 (Homo sapiens (Human), UniProt P24941). Description: CDK2 kinase assay (Mobility Shift Assay). The conditions noted are these: 28° C. The protocol:
as §1

Experiment [1] deals with recombinant, full-length HDAC-1 (Homo sapiens (Human), UniProt Q13547). Description: HDAC-1 assay (fluorogenic Ac-peptide-AMC). Here is the method: (§2) 2. HDAC-1 and HDAC-6 Assays: • Method 1: The inhibitory effect of compounds on HDAC-1 and HDAC-6 function was determined in vitro using an optimized homogenous assay performed in 384-well plate format. In this assay, recombinant, full-length HDAC-1 or HDAC-6 protein (BPS Biosciences) was incubated with Ac-peptide-AMC with concentration in Km plot. Reactions were performed in Tris-based assay buffer and followed for fluorogenic release of 7-amino-4-methylcoumarin from substrate upon deacetylase and trypsin enzymatic activity. Fluorescence measurements were obtained using a multilabel plate reader (Synergy MX with excitation at 355 nm and emission at 460 nm.). Data were analyzed on a plate-by-plate basis for the linear range of fluorescence over time. Fit the data in GraphPad Prism V5.0 software to obtain ICso values using equation (Y=Bottom+(Top−Bottom)/(1+10^((Log IC50−X)*Hill Slope), Y is % inhibition and X is compound concentration).
as §2, with “The testing results of the representative compounds are listed in Table 1 below. •” for “2. HDAC-1 and HDAC-6 Assays: •”, “Method 2:” for “Method 1:”, “HDAC-1 (Active Motif) and” for “HDAC-1 or”, “(Synergy” for “(Synergy MX”, “obtain IC50” for “obtain ICso”

For experiment [2], the target named is recombinant, full-length HDAC-6 (Homo sapiens (Human), UniProt Q9UBN7). Description: HDAC-6 assay (fluorogenic Ac-peptide-AMC). The protocol:
as §2
as §2, with “The testing results of the representative compounds are listed in Table 1 below. •” for “2. HDAC-1 and HDAC-6 Assays: •”, “Method 2:” for “Method 1:”, “HDAC-1 (Active Motif) and” for “HDAC-1 or”, “(Synergy” for “(Synergy MX”, “obtain IC50” for “obtain ICso”

Setting [3] is: method 2: CDK6/cycD3 5 nM, ATP Km 550 μM, 150 min.
The mark [4] stands for this setting: method 2: CDK4/CycD3 10 nM, ATP Km 250 μM, 150 min.
[5] abbreviates: method 2: CDK2/CycA2 2.5 nM, ATP Km 17 μM, 30 min.
Where [6] appears, read: method 2: HDAC-1 (Active Motif).
Where [7] appears, read: method 2: HDAC-6 protein (BPS Biosciences).
Setting [8] is: method 1: HDAC-1 protein (BPS Biosciences).
Where [9] appears, read: method 1: CDK6/cycD3 15 nM, ATP Km 800 μM, 60 min.
[10] abbreviates: method 1: HDAC-6 protein (BPS Biosciences).
Where [11] appears, read: method 1: CDK4/CycD3 10 nM, ATP Km 221 μM, 180 min.
[12] abbreviates: method 1: CDK2/CycA2 12 nM, ATP Km 39 μM, 60 min.

Some results are limits rather than exact numbers.

recombinant, full-length HDAC-6, sequence (Q9UBN7 whole entry): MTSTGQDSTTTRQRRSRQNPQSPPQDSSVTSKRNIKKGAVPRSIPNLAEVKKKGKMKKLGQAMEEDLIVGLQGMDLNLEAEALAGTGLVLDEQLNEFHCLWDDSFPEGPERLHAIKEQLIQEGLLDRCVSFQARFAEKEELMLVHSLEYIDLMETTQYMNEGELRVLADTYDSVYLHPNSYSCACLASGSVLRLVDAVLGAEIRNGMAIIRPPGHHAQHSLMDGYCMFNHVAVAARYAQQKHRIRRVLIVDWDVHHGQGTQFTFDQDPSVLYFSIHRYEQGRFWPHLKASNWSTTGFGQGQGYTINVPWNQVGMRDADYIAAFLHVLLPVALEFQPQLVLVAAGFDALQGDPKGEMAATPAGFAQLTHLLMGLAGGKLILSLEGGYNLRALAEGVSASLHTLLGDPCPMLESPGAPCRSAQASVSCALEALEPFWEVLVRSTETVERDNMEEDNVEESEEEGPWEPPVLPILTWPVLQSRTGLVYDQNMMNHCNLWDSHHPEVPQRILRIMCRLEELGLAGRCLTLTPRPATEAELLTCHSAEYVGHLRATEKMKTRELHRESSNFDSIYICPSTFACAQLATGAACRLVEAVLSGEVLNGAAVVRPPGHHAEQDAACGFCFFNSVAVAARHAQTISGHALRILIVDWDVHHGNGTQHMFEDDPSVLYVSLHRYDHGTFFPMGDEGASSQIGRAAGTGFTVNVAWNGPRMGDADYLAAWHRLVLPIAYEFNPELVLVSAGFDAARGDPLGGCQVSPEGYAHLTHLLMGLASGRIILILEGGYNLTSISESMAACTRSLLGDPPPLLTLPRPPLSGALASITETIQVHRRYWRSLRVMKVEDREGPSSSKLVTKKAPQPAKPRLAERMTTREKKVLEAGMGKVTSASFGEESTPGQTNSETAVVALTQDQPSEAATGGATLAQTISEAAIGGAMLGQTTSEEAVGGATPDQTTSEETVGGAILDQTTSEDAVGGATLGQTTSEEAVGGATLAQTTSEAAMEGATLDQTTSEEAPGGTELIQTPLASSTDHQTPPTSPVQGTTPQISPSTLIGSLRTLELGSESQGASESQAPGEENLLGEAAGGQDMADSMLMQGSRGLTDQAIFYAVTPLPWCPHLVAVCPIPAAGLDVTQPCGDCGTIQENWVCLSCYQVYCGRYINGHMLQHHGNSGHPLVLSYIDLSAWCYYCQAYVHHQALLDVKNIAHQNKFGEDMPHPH
CDK6/CycD3, sequence (Q00534 whole entry, species assumed, canonical isoform): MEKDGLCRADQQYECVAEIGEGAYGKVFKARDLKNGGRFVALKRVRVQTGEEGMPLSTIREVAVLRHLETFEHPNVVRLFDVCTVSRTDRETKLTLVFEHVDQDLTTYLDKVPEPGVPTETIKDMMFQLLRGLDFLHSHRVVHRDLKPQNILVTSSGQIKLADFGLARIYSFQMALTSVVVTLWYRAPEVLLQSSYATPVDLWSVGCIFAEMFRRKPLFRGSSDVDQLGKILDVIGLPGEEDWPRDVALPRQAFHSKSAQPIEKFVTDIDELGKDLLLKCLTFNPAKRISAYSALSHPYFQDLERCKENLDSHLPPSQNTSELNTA
CDK6/CycD3, sequence (P30281 whole entry partner, species assumed, canonical isoform): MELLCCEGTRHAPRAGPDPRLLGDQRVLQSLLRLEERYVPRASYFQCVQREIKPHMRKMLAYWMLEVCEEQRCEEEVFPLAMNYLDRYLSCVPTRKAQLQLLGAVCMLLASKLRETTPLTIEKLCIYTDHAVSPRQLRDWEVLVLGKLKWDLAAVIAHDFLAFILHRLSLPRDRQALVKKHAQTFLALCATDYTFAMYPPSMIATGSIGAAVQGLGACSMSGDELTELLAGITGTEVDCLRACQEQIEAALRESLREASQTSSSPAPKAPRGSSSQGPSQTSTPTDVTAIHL
recombinant, full-length HDAC-1, sequence (Q13547 whole entry): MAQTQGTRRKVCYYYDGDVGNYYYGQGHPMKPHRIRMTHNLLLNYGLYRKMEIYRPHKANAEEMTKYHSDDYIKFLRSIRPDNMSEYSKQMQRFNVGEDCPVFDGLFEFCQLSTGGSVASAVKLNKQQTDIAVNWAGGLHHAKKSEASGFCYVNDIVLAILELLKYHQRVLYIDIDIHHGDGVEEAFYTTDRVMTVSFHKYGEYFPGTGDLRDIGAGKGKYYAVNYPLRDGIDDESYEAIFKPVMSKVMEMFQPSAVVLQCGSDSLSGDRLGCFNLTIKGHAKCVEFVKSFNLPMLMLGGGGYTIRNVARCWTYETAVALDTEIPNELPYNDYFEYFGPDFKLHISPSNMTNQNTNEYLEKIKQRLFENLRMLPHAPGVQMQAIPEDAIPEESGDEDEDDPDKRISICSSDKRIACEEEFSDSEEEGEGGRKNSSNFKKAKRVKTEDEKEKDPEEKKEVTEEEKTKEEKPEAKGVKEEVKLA
CDK4/CycD3, sequence (P11802 whole entry, species assumed): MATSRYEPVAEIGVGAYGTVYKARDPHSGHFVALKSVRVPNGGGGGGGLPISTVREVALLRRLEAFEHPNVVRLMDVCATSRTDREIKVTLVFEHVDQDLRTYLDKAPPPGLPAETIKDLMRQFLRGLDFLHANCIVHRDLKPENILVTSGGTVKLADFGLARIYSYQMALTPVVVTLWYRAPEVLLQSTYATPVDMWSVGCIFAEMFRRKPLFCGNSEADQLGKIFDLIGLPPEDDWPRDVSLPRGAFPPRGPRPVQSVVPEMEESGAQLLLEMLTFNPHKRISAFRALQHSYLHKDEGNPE
CDK4/CycD3, sequence (P30281 whole entry partner, species assumed): as the sequence (P30281 whole entry partner, species assumed, canonical isoform) above

As a reminder, the IC50 is the concentration that inhibits the measured activity by half. For the compound `CC(=O)c1c(C)c2cnc(Nc3ccc(N(C)CCN(C)c4ccc(C(=O)NO)nc4)cn3)nc2n(C2CCCC2)c1=O` [Compound 4, 5-((2-((6-((6-acetyl-8-cyclopentyl-5-methyl-7-oxo-7,8-dihydropyrido[2,3-d]pyrimidin-2-yl)amino)pyridin-3-yl)(methyl)amino)ethyl)(methyl)amino)-N-hydroxypicolinamide], the IC50 was 25 to 50 nM on CDK6/CycD3 (setting [3]), ≤ 10 nM at CDK4/CycD3 (setting [4]) and > 5000 nM on CDK2/CycA2 (setting [5]).
For `CC(=O)c1c(C)c2cnc(Nc3ccc(N4CCC(C(=O)NO)CC4)cn3)nc2n(C2CCCC2)c1=O` [Compound 7, 1-(6-((6-acetyl-8-cyclopentyl-5-methyl-7-oxo-7,8-dihydropyrido[2,3-d]pyrimidin-2-yl)amino)pyridin-3-yl)-N-hydroxypiperidine-4-carboxamide], in that order: 25 to 50 nM, ≤ 10 nM and > 2000 nM.
Turning to `CC(=O)c1c(C)c2cnc(Nc3ccc(N(C)CCCCCCC(=O)NO)cn3)nc2n(C2CCCC2)c1=O` [Compound 9, 7-((6-((6-acetyl-8-cyclopentyl-5-methyl-7-oxo-7,8-dihydropyrido[2,3-d]pyrimidin-2-yl)amino)pyridin-3-yl)(methyl)amino)-N-hydroxyheptanamide], the concentration for half-maximal inhibition (IC50) in experiment [1] (setting [6]) was 5 to 10 nM; at CDK6/CycD3 (setting [3]), 25 to 50 nM; in experiment [2] (setting [7]), 10 to 50 nM; at CDK4/CycD3 (setting [4]) it was 10 to 25 nM; at CDK2/CycA2 (setting [5]), > 5000 nM.
`CC(=O)c1c(C)c2cnc(Nc3ccc(N(C)CCN(C)c4ccc(C(=O)NO)cc4)cn3)nc2n(C2CCCC2)c1=O` [Compound 8, 4-((2-((6-((6-acetyl-8-cyclopentyl-5-methyl-7-oxo-7,8-dihydropyrido[2,3-d]pyrimidin-2-yl)amino)pyridin-3-yl) (methyl)amino)ethyl) (methyl)amino)-N-hydroxybenzamide]: the IC50 at CDK6/CycD3 (setting [3]) was 25 to 50 nM; at CDK4/CycD3 (setting [4]), ≤ 10 nM; on CDK2/CycA2 (setting [5]), > 5000 nM.
For the compound `CC(=O)c1c(C)c2cnc(Nc3ccc(OCCN(C)c4ccc(C(=O)NO)cn4)cn3)nc2n(C2CCCC2)c1=O` [Compound 5, 6-((2-((6-((6-acetyl-8-cyclopentyl-5-methyl-7-oxo-7,8-dihydropyrido[2,3-d]pyrimidin-2-yl)amino)pyridin-3-yl)oxy)ethyl)(methyl)amino)-N-hydroxynicotinamide], the 50% inhibitory concentration (IC50) was ≤ 5 nM in experiment [1] (setting [6]); 25 to 50 nM on CDK6/CycD3 (setting [3]); 5 to 10 nM in experiment [2] (setting [7]); ≤ 10 nM at CDK4/CycD3 (setting [4]); > 2000 nM on CDK2/CycA2 (setting [5]).
For `CC(=O)c1c(C)c2cnc(Nc3ccc(N(C)CCN(C)c4ccc(C(=O)NO)cn4)cn3)nc2n(C2CCCC2)c1=O` [Compound 3, 6-((2-((6-((6-acetyl-8-cyclopentyl-5-methyl-7-oxo-7,8-dihydropyrido[2,3-d]pyrimidin-2-yl)amino)pyridin-3-yl)(methyl)amino)ethyl)(methyl)amino)-N-hydroxynicotinamide] the same measures were 50 to 75 nM, 25 to 50 nM, 75 to 100 nM, 10 to 25 nM and > 2000 nM.
Consider `CC(=O)c1c(C)c2cnc(Nc3ccc(N(C)Cc4ccc(/C=C/C(=O)NO)cc4)cn3)nc2n(C2CCCC2)c1=O` [Compound 2, (E)-3-(4-(((6-((6-acetyl-8-cyclopentyl-5-methyl-7-oxo-7,8-dihydropyrido[2,3-d]pyrimidin-2-yl)amino)pyridin-3-yl)(methyl)amino)methyl)phenyl)-N-hydroxyacrylamide], for which the IC50 was 10 to 50 nM in experiment [1] (setting [8]); 50 to 100 nM at CDK6/CycD3 (setting [9]); 50 to 75 nM in experiment [2] (setting [10]); 10 to 25 nM at CDK4/CycD3 (setting [11]); > 2000 nM on CDK2/CycA2 (setting [12]).
For `CC(=O)c1c(C)c2cnc(Nc3ccc(N(C)CCN(C)c4ncc(C(=O)NO)cn4)cn3)nc2n(C2CCCC2)c1=O` [Compound 1, 2-((2-((6-((6-acetyl-8-cyclopentyl-5-methyl-7-oxo-7,8-dihydropyrido[2,3-d]pyrimidin-2-yl)amino)pyridin-3-yl) (methyl)amino)ethyl) (methyl)amino)-N-hydroxypyrimidine-5-carboxamide], in that order: 5 to 10 nM, 25 to 50 nM, 10 to 50 nM, ≤ 10 nM and > 10000 nM.
On to `CC(=O)c1c(C)c2cnc(Nc3ccc(OCCN(C)c4ncc(C(=O)NO)cn4)cn3)nc2n(C2CCCC2)c1=O` [Compound 10, 2-((2-((6-((6-acetyl-8-cyclopentyl-5-methyl-7-oxo-7,8-dihydropyrido[2,3-d]pyrimidin-2-yl)amino)pyridin-3-yl)oxy)ethyl)(methyl)amino)-N-hydroxypyrimidine-5-carboxamide], for which the concentration for half-maximal inhibition (IC50) in experiment [1] (setting [6]) is ≤ 5 nM; at CDK6/CycD3 (setting [3]) it was 25 to 50 nM; in experiment [2] (setting [7]) it was 10 to 50 nM; at CDK4/CycD3 (setting [4]) it was 10 to 25 nM; on CDK2/CycA2 (setting [5]), > 10000 nM.

For the origin of these results see patent publication US12358911B2, “Heterocyclic comipound as CDK-HDAC dual pathway inhibitor” (Hangzhou Innogate Pharma Co., Ltd., priority 2018, dated 2025).
